Experimental findings from patent US8580794B2 (AbbVie Inc., priority 2009, dated 2013) are described below.

Some results are limits rather than exact numbers.

The target of the assay is GST-Bc1-2 (Homo sapiens, UniProt P10415). The assay can be described thus: Time Resolved-Fluorescence Resonance Energy Transfer (TR-FRET) Bcl-2 binding assay with F-Bak peptide probe. The settings on record: GST-Bcl-2 1 nM, F-Bak probe 100 nM, Tb-anti-GST 1 nM; '<' = below limit of detection; read-out: TR-FRET Bcl-2 Binding Ki.
Sequence of GST-Bc1-2 (P10415 whole entry): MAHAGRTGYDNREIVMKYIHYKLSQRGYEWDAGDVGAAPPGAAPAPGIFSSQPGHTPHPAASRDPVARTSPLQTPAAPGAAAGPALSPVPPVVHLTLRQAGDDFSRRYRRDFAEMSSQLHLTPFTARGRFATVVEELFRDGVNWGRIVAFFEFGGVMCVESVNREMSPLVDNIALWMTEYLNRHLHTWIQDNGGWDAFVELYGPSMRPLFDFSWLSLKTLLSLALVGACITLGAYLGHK
For the compound `CC(C)(CO)CNc1ccc(S(=O)(=O)NC(=O)c2ccc(N3CCN(CC4=C(c5ccc(Cl)cc5)CC(C)(C)CC4)CC3)cc2Oc2cnc3[nH]ccc3c2)cc1[N+](=O)[O-]` [Example 146, 4-(4-{[2-(4-chlorophenyl)-4,4-dimethylcyclohex-1-en-1-yl]methyl}piperazin-1-yl)-N-({4-[(3-hydroxy-2,2-dimethylpropyl)amino]-3-nitrophenyl}sulfonyl)-2-(1H-pyrrolo[2,3-b]pyridin-5-yloxy)benzamide], the Ki was under 10 pM.

`CC1(C)CCC(CN2CCN(c3ccc(C(=O)NS(=O)(=O)c4ccc(NCC5CCCN(S(C)(=O)=O)C5)c([N+](=O)[O-])c4)c(Oc4cnc5[nH]ccc5c4)c3)CC2)=C(c2ccc(Cl)cc2)C1` (stereo not shown) [Example 147, 4-(4-{[2-(4-chlorophenyl)-4,4-dimethylcyclohex-1-en-1-yl]methyl}piperazin-1-yl)-N-{[4-({[1-(methylsulfonyl)piperidin-3-yl]methyl}amino)-3-nitrophenyl]sulfonyl}-2-(1H-pyrrolo[2,3-b]pyridin-5-yloxy)benzamide]: the inhibitory constant (Ki) is under 10 pM.

In the case of `CC(=O)N1CCCC(CNc2ccc(S(=O)(=O)NC(=O)c3ccc(N4CCN(CC5=C(c6ccc(Cl)cc6)CC(C)(C)CC5)CC4)cc3Oc3cnc4[nH]ccc4c3)cc2[N+](=O)[O-])C1` (stereo not shown) [Example 148, N-[(4-{[(1-acetylpiperidin-3-yl)methyl]amino}-3-nitrophenyl)sulfonyl]-4-(4-{[2-(4-chlorophenyl)-4,4-dimethylcyclohex-1-en-1-yl]methyl}piperazin-1-yl)-2-(1H-pyrrolo[2,3-b]pyridin-5-yloxy)benzamide], the inhibitory constant (Ki) was under 10 pM.

For `CC1(C)CCC(CN2CCN(c3ccc(C(=O)NS(=O)(=O)c4ccc(N[C@@H]5CCN(S(C)(=O)=O)C5)c([N+](=O)[O-])c4)c(Oc4cnc5[nH]ccc5c4)c3)CC2)=C(c2ccc(Cl)cc2)C1` [Example 149, 4-(4-{[2-(4-chlorophenyl)-4,4-dimethylcyclohex-1-en-1-yl]methyl}piperazin-1-yl)-N-[(4-{[(3R)-1-(methylsulfonyl)pyrrolidin-3-yl]amino}-3-nitrophenyl)sulfonyl]-2-(1H-pyrrolo[2,3-b]pyridin-5-yloxy)benzamide], the Ki was under 10 pM.

On to `CC1(C)CCCC(CN2CCN(c3ccc(C(=O)NS(=O)(=O)c4ccc(NCC5CCOCC5)c([N+](=O)[O-])c4)c(Oc4cnc5[nH]ccc5c4)c3)CC2)=C1c1ccc(Cl)cc1` [Example 150, 4-(4-{[2-(4-chlorophenyl)-3,3-dimethylcyclohex-1-en-1-yl]methyl}piperazin-1-yl)-N-({3-nitro-4-[(tetrahydro-2H-pyran-4-ylmethyl)amino]phenyl}sulfonyl)-2-(1H-pyrrolo[2,3-b]pyridin-5-yloxy)benzamide], for which the Ki is under 10 pM.

In the case of `CC1(C)CCC(CN2CCN(c3ccc(C(=O)NS(=O)(=O)c4ccc(NC5CN(C(CF)CF)C5)c([N+](=O)[O-])c4)c(Oc4cnc5[nH]ccc5c4)c3)CC2)=C(c2ccc(Cl)cc2)C1` [Example 151, 4-(4-{[2-(4-chlorophenyl)-4,4-dimethylcyclohex-1-en-1-yl]methyl}piperazin-1-yl)-N-{[4-({1-[2-fluoro-1-(fluoromethyl)ethyl]azetidin-3-yl}amino)-3-nitrophenyl]sulfonyl}-2-(1H-pyrrolo[2,3-b]pyridin-5-yloxy)benzamide], the inhibition constant Ki was determined as 17 pM.

Take `CC1(C)CCC(CN2CCN(c3ccc(C(=O)NS(=O)(=O)c4ccc(NCC5CCN(S(C)(=O)=O)C5)c([N+](=O)[O-])c4)c(Oc4cnc5[nH]ccc5c4)c3)CC2)=C(c2ccc(Cl)cc2)C1` (stereo not shown) [Example 152, 4-(4-{[2-(4-chlorophenyl)-4,4-dimethylcyclohex-1-en-1-yl]methyl}piperazin-1-yl)-N-{[4-({[1-(methylsulfonyl)pyrrolidin-3-yl]methyl}amino)-3-nitrophenyl]sulfonyl}-2-(1H-pyrrolo[2,3-b]pyridin-5-yloxy)benzamide]: the inhibition constant (Ki) is under 10 pM.

For `CC(=O)N1CCC(CNc2ccc(S(=O)(=O)NC(=O)c3ccc(N4CCN(CC5=C(c6ccc(Cl)cc6)CC(C)(C)CC5)CC4)cc3Oc3cnc4[nH]ccc4c3)cc2[N+](=O)[O-])C1` (stereo not shown) [Example 153, N-[(4-{[(1-acetylpyrrolidin-3-yl)methyl]amino}-3-nitrophenyl)sulfonyl]-4-(4-{[2-(4-chlorophenyl)-4,4-dimethylcyclohex-1-en-1-yl]methyl}piperazin-1-yl)-2-(1H-pyrrolo[2,3-b]pyridin-5-yloxy)benzamide], the Ki was under 10 pM.

`CC(=O)N1CC[C@@H](Nc2ccc(S(=O)(=O)NC(=O)c3ccc(N4CCN(CC5=C(c6ccc(Cl)cc6)CC(C)(C)CC5)CC4)cc3Oc3cnc4[nH]ccc4c3)cc2[N+](=O)[O-])C1` [Example 154, N-[(4-{[(3R)-1-acetylpyrrolidin-3-yl]amino}-3-nitrophenyl)sulfonyl]-4-(4-{[2-(4-chlorophenyl)-4,4-dimethylcyclohex-1-en-1-yl]methyl}piperazin-1-yl)-2-(1H-pyrrolo[2,3-b]pyridin-5-yloxy)benzamide]: the Ki was under 10 pM.

With `COCC(C)(C)CNc1ccc(S(=O)(=O)NC(=O)c2ccc(N3CCN(CC4=C(c5ccc(Cl)cc5)CC(C)(C)CC4)CC3)cc2Oc2cnc3[nH]ccc3c2)cc1[N+](=O)[O-]` [Example 155, 4-(4-{[2-(4-chlorophenyl)-4,4-dimethylcyclohex-1-en-1-yl]methyl}piperazin-1-yl)-N-({4-[(3-methoxy-2,2-dimethylpropyl)amino]-3-nitrophenyl}sulfonyl)-2-(1H-pyrrolo[2,3-b]pyridin-5-yloxy)benzamide], the inhibition constant Ki turned out to be 59 pM.

As to `CC1(C)CCC(CN2CCN(c3ccc(C(=O)NS(=O)(=O)c4ccc(NC[C@@H]5CC[C@@H](O)C5)c([N+](=O)[O-])c4)c(Oc4cnc5[nH]ccc5c4)c3)CC2)=C(c2ccc(Cl)cc2)C1` [Example 156, 4-(4-{[2-(4-chlorophenyl)-4,4-dimethylcyclohex-1-en-1-yl]methyl}piperazin-1-yl)-N-{[4-({[(1R,3R)-3-hydroxycyclopentyl]methyl}amino)-3-nitrophenyl]sulfonyl}-2-(1H-pyrrolo[2,3-b]pyridin-5-yloxy)benzamide], the Ki is under 10 pM.

On to `CC1(C)CCC(CN2CCN(c3ccc(C(=O)NS(=O)(=O)c4ccc(NC[C@H]5CC[C@H](O)C5)c([N+](=O)[O-])c4)c(Oc4cnc5[nH]ccc5c4)c3)CC2)=C(c2ccc(Cl)cc2)C1` [Example 157, 4-(4-{[2-(4-chlorophenyl)-4,4-dimethylcyclohex-1-en-1-yl]methyl}piperazin-1-yl)-N-{[4-({[(1S,3S)-3-hydroxycyclopentyl]methyl}amino)-3-nitrophenyl]sulfonyl}-2-(1H-pyrrolo[2,3-b]pyridin-5-yloxy)benzamide], for which the Ki was under 10 pM.

Take `CC1(C)CCC(CN2CCN(c3ccc(C(=O)NS(=O)(=O)c4ccc(NC[C@H]5CC[C@@H](O)C5)c([N+](=O)[O-])c4)c(Oc4cnc5[nH]ccc5c4)c3)CC2)=C(c2ccc(Cl)cc2)C1` [Example 158, 4-(4-{[2-(4-chlorophenyl)-4,4-dimethylcyclohex-1-en-1-yl]methyl}piperazin-1-yl)-N-{[4-({[(1S,3R)-3-hydroxycyclopentyl]methyl}amino)-3-nitrophenyl]sulfonyl}-2-(1H-pyrrolo[2,3-b]pyridin-5-yloxy)benzamide]: the Ki was under 10 pM.
